Experimental data published in PMC6751662, “Pharmacological and functional similarities of the human neuropeptide Y system in C. elegans challenges phylogenetic views on the FLP/NPR system” (Cell Communication and Signaling : CCS, 2019).
Read-outs that look alike come from different tables or passages of the source. Ends that are not written are not given here.

Columns and labels:
NPR-4b [1] = target: T1, NPR-4b (Caenorhabditis elegans, UniProt A0A078BTK0); assay: cAMP reporter gene assay, Gi/o (inhibition of forskolin-induced cAMP), NPR-4b; assay type: cell-based, C. elegans
T1 sequence (A0A078BTK0 1-376): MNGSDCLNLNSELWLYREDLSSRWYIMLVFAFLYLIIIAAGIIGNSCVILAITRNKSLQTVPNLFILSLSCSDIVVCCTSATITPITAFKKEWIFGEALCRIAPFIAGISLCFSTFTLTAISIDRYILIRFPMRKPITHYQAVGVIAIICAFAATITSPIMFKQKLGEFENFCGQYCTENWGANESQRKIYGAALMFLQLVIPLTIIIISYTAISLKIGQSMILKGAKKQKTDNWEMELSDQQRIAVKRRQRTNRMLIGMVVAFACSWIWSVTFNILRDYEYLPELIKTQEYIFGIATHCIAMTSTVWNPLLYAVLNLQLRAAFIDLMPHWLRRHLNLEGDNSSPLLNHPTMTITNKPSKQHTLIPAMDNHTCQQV
Method: (§1) Activation of Gs and Gi/o was assessed with a cAMP reporter gene assay. HEK293 cells grown to 70–80% confluency in 6-well plates were transiently co-transfected with vectors encoding the receptor and the cAMP reporter gene plasmid pGL4.29 [luc2P/CRE/Hygro] (Promega; 4 μg total, 1:1 ratio) using Metafectene Pro (3 μl/μg DNA; Biontex) following the manufacturer’s instructions. 16 h post transfection, the cells were seeded into white 384-well plates at a density of 20,000 cells/well. On the next day, the medium was removed and the cells were stimulated with 20 μl of peptide solution (or forskolin as positive control) in serum-free DMEM for 4 h. For measuring Gi/o activity, the peptide solutions additionally contained 1 μM forskolin to elevate cellular cAMP levels. After incubation, the luciferase substrate OneGlo in lysis buffer (Promega) was added and the luminescence was measured in a microplate reader Tecan Spark (Tecan).
(§2) For in vitro activation, data is presented as mean ± SEM of at least three independent experiments conducted in technical triplicate. […] For the C. elegans NPRs, we considered the strongest response elicited by any of the peptides downstream of a particular receptor as the receptor’s maximal signal. This may or may not be the biological maximum that can be reached by the ‘true’ endogenous agonist. For the human receptors, the response to the established endogenous agonist reflected the maximal signal.

NPR-1 [2] = target: T2, NPR-1 (Caenorhabditis elegans, UniProt Q18534); assay: cAMP reporter gene assay, Gi/o (inhibition of forskolin-induced cAMP), NPR-1; assay type: cell-based, C. elegans; set-up: host or cells: HEK293; details: for Emax: HEK293, read-out: Emax ± SEM [%]
T2 sequence (Q18534 1-457): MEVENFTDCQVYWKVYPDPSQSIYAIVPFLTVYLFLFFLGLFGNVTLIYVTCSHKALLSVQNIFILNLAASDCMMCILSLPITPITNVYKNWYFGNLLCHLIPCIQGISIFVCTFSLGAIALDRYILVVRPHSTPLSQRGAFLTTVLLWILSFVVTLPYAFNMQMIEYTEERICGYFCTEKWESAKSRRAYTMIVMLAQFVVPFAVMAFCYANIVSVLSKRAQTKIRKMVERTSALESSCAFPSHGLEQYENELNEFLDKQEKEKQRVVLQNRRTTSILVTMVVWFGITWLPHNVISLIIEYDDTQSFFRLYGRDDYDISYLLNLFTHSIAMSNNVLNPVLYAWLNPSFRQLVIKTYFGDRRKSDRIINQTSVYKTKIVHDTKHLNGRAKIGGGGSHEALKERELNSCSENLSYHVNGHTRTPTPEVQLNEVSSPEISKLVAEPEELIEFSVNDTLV
Method: as §1, with “(Tecan). Data were analyzed with GraphPad Prism 5.03 and are shown as fold of basal or fold of forskolin in case of Gαi/o activity.” for “(Tecan).”
as §2

NPR-11 [3] = target: T3, NPR-11 (Caenorhabditis elegans, UniProt Q18179); assay: cAMP reporter gene assay, Gi/o (inhibition of forskolin-induced cAMP), NPR-11; assay type: cell-based, C. elegans; details: for Emax: HEK293, read-out: Emax ± SEM [%]
T3 construct: expressed in transfected cells; host or cells: HEK293, transient
T3 sequence (Q18179 1-402): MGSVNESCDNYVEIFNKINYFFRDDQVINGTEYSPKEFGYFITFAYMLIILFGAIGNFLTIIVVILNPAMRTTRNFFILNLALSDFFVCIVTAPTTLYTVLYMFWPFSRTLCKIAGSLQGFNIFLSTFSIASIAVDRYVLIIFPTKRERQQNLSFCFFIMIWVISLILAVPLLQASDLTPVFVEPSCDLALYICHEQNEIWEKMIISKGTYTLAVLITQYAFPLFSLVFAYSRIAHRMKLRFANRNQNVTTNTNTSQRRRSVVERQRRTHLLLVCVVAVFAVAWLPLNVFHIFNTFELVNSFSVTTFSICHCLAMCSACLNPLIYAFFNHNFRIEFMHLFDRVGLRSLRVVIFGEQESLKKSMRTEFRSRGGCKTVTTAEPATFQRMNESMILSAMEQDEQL
Method: as §1, with “(Tecan). Data were analyzed with GraphPad Prism 5.03 and are shown as fold of basal or fold of forskolin in case of Gαi/o activity.” for “(Tecan).”
as §2

[4] = Solubility of crude peptides in RP-HPLC purification solvents; assay type: physicochemical; details: H2O + 0.1% TFA / acetonitrile + 0.08% TFA (RP-HPLC purification conditions)
Method: C-terminally amidated peptides were synthesized in 15 μmol scale by solid-phase peptide synthesis following the Fmoc/tert-butyl strategy (reviewed in [18]) on Rink amide resin using an automated Syro II peptide synthesizer (MultiSynTech). Automated coupling reactions were performed as double couplings using 8 eq Nα-protected amino acid, activated in situ with equimolar amounts of Oxyma and […] in dimethylformamide (DMF) for 30 min. Automated Fmoc deprotection was carried out with 40% (v/v) piperidine in DMF for 3 min and 20% (v/v) piperidine in DMF for 10 min. Reactive side chains of amino acids were protected by tert-butyl (tBu for Tyr, Ser, Asp, Glu, Thr), trityl (Trt for Asn, Gln, His), 2,2,4,6,7-pentamethyldihydrobenzofuran-5-sulfonyl (Pbf for Arg) and tert-butyloxycarbonyl (Boc for Lys). Peptides were cleaved off the resin using trifluoroacetic acid (TFA)/H2O/triisopropylsilane (90/5/5, v/v/v) for 2.5 h at room temperature and precipitated in ice cold diethyl ether. All peptides were purified to > 95% purity by RP-HPLC (Shimadzu) using a Phenomenex Jupiter 10 μm Proteo 90 Å (C12) column. For most peptides, linear gradients of H2O + 0.1% trifluoroacetic acid (TFA) (eluent A) and acetonitrile (ACN) + 0.08% TFA (eluent B) were applied at a flow rate of 10 ml/minute. […] FLP-27, FLP-33, and FLP-34 were solubilized by ultrasonication at 50 °C for 10 min and subsequently purified under standard solvent conditions used pre-heated HPLC systems. […] Peptide identity was verified by matrix-assisted laser desorption/time of flight (MALDI-ToF; Ultraflex III MALDI-ToF/ToF, Bruker Daltonics) mass spectrometry, and peptide purity was evaluated with analytical RP-HPLC.

NPR-5b [5] = target: T4, NPR-5b (Caenorhabditis elegans, UniProt Q6F3C9); assay: cAMP reporter gene assay, Gi/o (with forskolin), NPR-5b; assay type: cell-based, C. elegans; set-up: Emax: unit not given here; details: NPR-5b, transiently transfected HEK293 cells
T4 sequence (Q6F3C9 1-433): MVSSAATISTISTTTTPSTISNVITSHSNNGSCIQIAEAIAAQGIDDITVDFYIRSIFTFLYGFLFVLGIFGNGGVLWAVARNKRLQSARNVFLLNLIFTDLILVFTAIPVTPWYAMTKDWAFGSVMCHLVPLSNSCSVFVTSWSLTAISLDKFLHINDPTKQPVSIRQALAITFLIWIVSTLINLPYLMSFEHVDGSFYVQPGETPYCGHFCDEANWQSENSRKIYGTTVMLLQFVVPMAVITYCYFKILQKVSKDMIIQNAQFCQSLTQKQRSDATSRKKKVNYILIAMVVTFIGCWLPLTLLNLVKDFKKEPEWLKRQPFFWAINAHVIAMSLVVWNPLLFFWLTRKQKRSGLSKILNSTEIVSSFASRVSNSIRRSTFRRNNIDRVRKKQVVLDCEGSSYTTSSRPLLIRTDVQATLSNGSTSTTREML
Method: as §1, §2

NPR-5b [6] = target: T4, NPR-5b; assay: cAMP reporter gene assay, Gs (no forskolin), NPR-5b; assay type: cell-based, C. elegans; details: 4 h, NPR-5b-transfected HEK293, CRE-luciferase reporter, mean of >=3 independent experiments
Method: as §1, with “(Tecan). Data were analyzed with GraphPad Prism 5.03 and are shown as fold of basal or fold of forskolin in case of Gαi/o activity.” for “(Tecan).”
as §2

NPR-3 = assay: cAMP reporter gene assay, Gs (no forskolin), NPR-3; assay type: cell-based, C. elegans; details: 4 h, NPR-3-transfected HEK293, CRE-luciferase reporter, mean of >=3 independent experiments
Method: as §1, with “(Tecan). Data were analyzed with GraphPad Prism 5.03 and are shown as fold of basal or fold of forskolin in case of Gαi/o activity.” for “(Tecan).”
as §2

NPR-4b [7] = target: T1, NPR-4b; assay: cAMP reporter gene assay, Gs (no forskolin), NPR-4b; assay type: cell-based, C. elegans; details: 4 h, NPR-4b-transfected HEK293, CRE-luciferase reporter, mean of >=3 independent experiments
Method: as §1, with “(Tecan). Data were analyzed with GraphPad Prism 5.03 and are shown as fold of basal or fold of forskolin in case of Gαi/o activity.” for “(Tecan).”
as §2

NPR-1 [8] = target: T2, NPR-1; assay: cAMP reporter gene assay, Gs (no forskolin), NPR-1; assay type: cell-based, C. elegans; set-up: host or cells: HEK293; details: 4 h, NPR-1-transfected HEK293, CRE-luciferase reporter, mean of >=3 independent experiments
Method: as §1, with “(Tecan). Data were analyzed with GraphPad Prism 5.03 and are shown as fold of basal or fold of forskolin in case of Gαi/o activity.” for “(Tecan).”
as §2

NPR-6 = assay: cAMP reporter gene assay, Gs (no forskolin), NPR-6; assay type: cell-based, C. elegans; details: 4 h, NPR-6-transfected HEK293, CRE-luciferase reporter, mean of >=3 independent experiments
Method: as §1, with “(Tecan). Data were analyzed with GraphPad Prism 5.03 and are shown as fold of basal or fold of forskolin in case of Gαi/o activity.” for “(Tecan).”
as §2

NPR-11 [9] = target: T3, NPR-11; assay: cAMP reporter gene assay, Gs (no forskolin), NPR-11; assay type: cell-based, C. elegans; details: 4 h, NPR-11-transfected HEK293, CRE-luciferase reporter, mean of >=3 independent experiments
Method: as §1, with “(Tecan). Data were analyzed with GraphPad Prism 5.03 and are shown as fold of basal or fold of forskolin in case of Gαi/o activity.” for “(Tecan).”
as §2

[10] = 1 µM forskolin (positive control)
[11] = 100 µM forskolin (positive control)

KHEYLRF-NH2 [FLP-14]
EC50 (NPR-4b [1]): 2430 nM
Emax (NPR-4b [1]; NPR-4b, forskolin (1 µM) set to 1.00, lower values correspond to high Gi/o activity, transiently transfected HEK293 cells, mean ± SEM of at least three independent experiments, SEM): -0.77 ± 0.2%
Emax (NPR-1 [2]; SEM): -0.51 ± 0.13%
EC50 (NPR-1 [2]; SEM): 25.1 nM
Emax at NPR-1 (NPR-1 [2]; full concentration-response curve, inhibition of 1 µM forskolin-induced cAMP, transfected HEK293 (Figure S1)): 53 % of FLP-21 induced response
EC50 (NPR-11 [3]): 1890 nM
Emax (NPR-11 [3]; SEM): -0.86 ± 0.19%

ADISTFASAINNAGRLRY-NH2 [FLP-34-1]
solubility of crude peptide [4]: partly insoluble
Emax (NPR-5b [5]; forskolin (1 µM) set to 1.00, increase of cAMP, mean ± SEM of at least three independent experiments, SEM): 6.7 ± 8.21
EC50 (NPR-5b [5]; full concentration-response curve, with 1 µM forskolin, increase of cAMP, at least three independent experiments): 20100 nM
EC50 (NPR-1 [2]): 578 nM
Emax (NPR-1 [2]; SEM): -0.65 ± 0.14%
Emax (NPR-11 [3]; SEM): -0.62 ± 0.1%
EC50 (NPR-11 [3]; SEM): 20 nM

ALNRDSLVASLNNAERLRF-NH2 [FLP-34-2]
solubility of crude peptide [4]: partly insoluble
EC50 (NPR-11 [3]; EC50 at NPR-11, full concentration-response curve, inhibition of 1 µM forskolin-induced cAMP, transfected HEK293 (Figure S1, Table S11)): 0.7 nM
Emax (NPR-11 [3]; SEM): -0.65 ± 0.14%
EC50 (NPR-11 [3]; SEM): 0.631 nM

C=C[C@@]1(C)CC(=O)[C@]2(O)[C@@]3(C)[C@@H](O)CCC(C)(C)[C@@H]3[C@H](O)[C@H](OC(C)=O)[C@@]2(C)O1 [forskolin, reference compound]
cAMP assay Gs, NPR-5b (NPR-5b [6]; [10]): 23.17 x-fold of basal
cAMP assay Gs, NPR-5b (NPR-5b [6]; [11]): 67.99 x-fold of basal
cAMP assay Gs, NPR-3 (NPR-3; [10]): 20.07 x-fold of basal
cAMP assay Gs, NPR-3 (NPR-3; [11]): 51.90 x-fold of basal
cAMP assay Gs, NPR-4b (NPR-4b [7]; [10]): 16.52 x-fold of basal
cAMP assay Gs, NPR-4b (NPR-4b [7]; [11]): 44.21 x-fold of basal
cAMP assay Gs, NPR-1 (NPR-1 [8]; [10]): 15.39 x-fold of basal
cAMP assay Gs, NPR-1 (NPR-1 [8]; [11]): 76.79 x-fold of basal
cAMP assay Gs, NPR-6 (NPR-6; [10]): 12.19 x-fold of basal
cAMP assay Gs, NPR-6 (NPR-6; [11]): 46.24 x-fold of basal
cAMP assay Gs, NPR-11 (NPR-11 [9]; [10]): 16.67 x-fold of basal
cAMP assay Gs, NPR-11 (NPR-11 [9]; [11]): 60.68 x-fold of basal
